Molecular target: Nav 1.7 (Homo sapiens (Human), UniProt Q15858)
Experiment: in-vitro Nav 1.7 PX (IC50)
Format: cell-based
Settings: not given

Sequence of Nav 1.7 (Q15858 whole entry): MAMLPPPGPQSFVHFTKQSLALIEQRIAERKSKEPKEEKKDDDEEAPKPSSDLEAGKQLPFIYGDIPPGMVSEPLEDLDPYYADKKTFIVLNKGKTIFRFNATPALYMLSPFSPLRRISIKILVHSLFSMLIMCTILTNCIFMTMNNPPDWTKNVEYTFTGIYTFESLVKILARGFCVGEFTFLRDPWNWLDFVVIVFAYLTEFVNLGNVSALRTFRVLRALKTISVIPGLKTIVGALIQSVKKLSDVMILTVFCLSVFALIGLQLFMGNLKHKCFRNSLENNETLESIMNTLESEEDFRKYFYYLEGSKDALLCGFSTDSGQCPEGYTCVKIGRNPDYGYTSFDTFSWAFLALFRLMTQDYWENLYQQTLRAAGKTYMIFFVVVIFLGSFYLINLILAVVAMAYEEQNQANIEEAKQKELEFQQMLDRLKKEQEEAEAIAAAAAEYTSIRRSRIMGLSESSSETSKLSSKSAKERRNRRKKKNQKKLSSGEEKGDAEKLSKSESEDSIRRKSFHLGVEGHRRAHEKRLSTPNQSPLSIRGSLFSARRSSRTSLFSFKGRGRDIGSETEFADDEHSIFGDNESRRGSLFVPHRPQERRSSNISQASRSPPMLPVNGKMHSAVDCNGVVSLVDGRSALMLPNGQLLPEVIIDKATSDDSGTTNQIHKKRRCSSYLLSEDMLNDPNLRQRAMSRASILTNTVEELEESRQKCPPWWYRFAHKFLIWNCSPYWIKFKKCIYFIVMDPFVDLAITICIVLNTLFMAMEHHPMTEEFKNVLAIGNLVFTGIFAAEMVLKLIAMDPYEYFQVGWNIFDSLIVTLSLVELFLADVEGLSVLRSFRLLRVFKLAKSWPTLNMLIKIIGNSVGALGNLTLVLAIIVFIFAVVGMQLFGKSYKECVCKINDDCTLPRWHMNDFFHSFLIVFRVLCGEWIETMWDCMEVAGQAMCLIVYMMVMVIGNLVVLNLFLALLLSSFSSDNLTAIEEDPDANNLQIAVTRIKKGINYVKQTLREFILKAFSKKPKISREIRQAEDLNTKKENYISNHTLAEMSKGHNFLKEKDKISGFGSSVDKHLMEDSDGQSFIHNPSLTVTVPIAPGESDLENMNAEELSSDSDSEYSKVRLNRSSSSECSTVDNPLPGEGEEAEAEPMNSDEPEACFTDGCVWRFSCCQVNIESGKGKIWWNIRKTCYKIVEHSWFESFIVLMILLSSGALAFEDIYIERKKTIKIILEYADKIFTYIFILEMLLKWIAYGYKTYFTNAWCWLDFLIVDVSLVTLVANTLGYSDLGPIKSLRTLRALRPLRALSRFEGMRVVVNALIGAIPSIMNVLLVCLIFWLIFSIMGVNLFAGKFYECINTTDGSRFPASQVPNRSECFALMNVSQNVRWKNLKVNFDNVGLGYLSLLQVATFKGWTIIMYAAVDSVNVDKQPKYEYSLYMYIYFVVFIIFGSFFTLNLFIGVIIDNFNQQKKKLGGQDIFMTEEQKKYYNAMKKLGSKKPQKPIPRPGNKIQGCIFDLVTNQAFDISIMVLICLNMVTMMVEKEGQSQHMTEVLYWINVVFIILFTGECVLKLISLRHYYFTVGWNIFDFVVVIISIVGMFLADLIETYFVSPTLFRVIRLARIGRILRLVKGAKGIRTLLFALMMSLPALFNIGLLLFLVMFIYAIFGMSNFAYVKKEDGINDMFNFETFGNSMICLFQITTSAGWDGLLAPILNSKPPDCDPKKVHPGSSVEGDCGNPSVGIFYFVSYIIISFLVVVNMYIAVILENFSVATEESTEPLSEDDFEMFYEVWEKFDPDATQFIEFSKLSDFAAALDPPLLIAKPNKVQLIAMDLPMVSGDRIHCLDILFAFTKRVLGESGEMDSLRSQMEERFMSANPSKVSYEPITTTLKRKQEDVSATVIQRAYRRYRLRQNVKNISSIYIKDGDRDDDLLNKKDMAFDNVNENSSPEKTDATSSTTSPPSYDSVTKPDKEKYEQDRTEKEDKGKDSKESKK

Point of comparison: `COc1cc(Br)ccc1-n1c(=O)ccc2cc(S(=O)(=O)Nc3ccon3)ccc21` (atropisomer, axis not shown; (P)) [Example 574, (P)-1-(4-bromo-2-methoxyphenyl)-N-3-isoxazolyl-2-oxo-1,2-dihydro-6-quinolinesulfonamide], IC50 772 nM. Against it:
- COc1nc(OCc2cc(F)c(F)c(F)c2)c(Cl)cc1-n1c(=O)ccc2cc(S(=O)(=O)Nc3ccon3)ccc21 [Example 1218, 1-(5-chloro-2-methoxy-6-((3,4,5-trifluorobenzyl)oxy)-3-pyridinyl)-N-3-isoxazolyl-2-oxo-1,2-dihydro-6-quinolinesulfonamide] — 20-fold lower, 39 nM
- COc1nc(Oc2ccc(F)cc2F)c(Cl)cc1-n1c(=O)ccc2cc(S(=O)(=O)Nc3ccon3)ccc21 [Example 1221, 1-(5-chloro-6-(2,4-difluorophenoxy)-2-methoxy-3-pyridinyl)-N-3-isoxazolyl-2-oxo-1,2-dihydro-6-quinolinesulfonamide] — 3.4-fold higher, 2590 nM

Same assay, conditions: in-vitro Nav 1.7 PX data

Point of comparison: `COc1cc(-c2cc(C)ccc2F)c(C)cc1-n1c(=O)ccc2cc(S(=O)(=O)Nc3ncccn3)ccc21` [Example 970, 1-(2′-fluoro-5-methoxy-2,5′-dimethyl-4-biphenylyl)-2-oxo-N-2-pyrimidinyl-1,2-dihydro-6-quinolinesulfonamide], IC50 24 nM. Against it:
- COc1cc(-c2cccc(C)c2OC)c(F)cc1-n1c(=O)ccc2cc(S(=O)(=O)Nc3ccon3)ccc21 [Example 792, 1-(2-fluoro-2′,5-dimethoxy-3′-methyl-4-biphenylyl)-N-3-isoxazolyl-2-oxo-1,2-dihydro-6-quinolinesulfonamide] — 1.6-fold higher, 38 nM
- COc1ccc(-c2ccc(F)c(F)c2)cc1-n1c(=O)ccc2cc(S(=O)(=O)Nc3ccon3)ccc21 [Example 839, 1-(3′,4′-difluoro-4-methoxy-3-biphenylyl)-N-3-isoxazolyl-2-oxo-1,2-dihydro-6-quinolinesulfonamide] — 4.7-fold higher, 113 nM
- COc1ccc(-c2cc(C)cc(Cl)c2)cc1-n1c(=O)ccc2cc(S(=O)(=O)Nc3ccon3)ccc21 [Example 867, 1-(3′-chloro-4-methoxy-5′-methyl-3-biphenylyl)-N-3-isoxazolyl-2-oxo-1,2-dihydro-6-quinolinesulfonamide] — 1.5-fold lower, 16 nM
- COc1cc(-c2cc(OC)c(-n3c(=O)ccc4cc(S(=O)(=O)Nc5ncccn5)ccc43)cc2F)ccc1F [Example 1006, 1-(2,4′-difluoro-3′,5-dimethoxy-4-biphenylyl)-2-oxo-N-2-pyrimidinyl-1,2-dihydro-6-quinolinesulfonamide] — 3.2-fold higher, 76 nM
- COc1nc(-c2cccc(C#N)c2)c(Cl)cc1-n1c(=O)ccc2cc(S(=O)(=O)Nc3ccon3)ccc21 [Example 1090, 1-(5-chloro-6-(3-cyanophenyl)-2-methoxy-3-pyridinyl)-N-3-isoxazolyl-2-oxo-1,2-dihydro-6-quinolinesulfonamide] — 8.4-fold higher, 201 nM
- COc1cnc(Cl)cc1-n1c(=O)ccc2cc(S(=O)(=O)Nc3ccon3)ccc21 [Example 617, 1-(2-chloro-5-methoxy-4-pyridinyl)-N-3-isoxazolyl-2-oxo-1,2-dihydro-6-quinolinesulfonamide] — 160-fold higher, 3880 nM
- COc1ccc(-c2ccccc2C(F)(F)F)cc1-n1c(=O)ccc2cc(S(=O)(=O)Nc3ccon3)ccc21 [Example 850, N-3-isoxazolyl-1-(4-methoxy-2′-(trifluoromethyl)-3-biphenylyl)-2-oxo-1,2-dihydro-6-quinolinesulfonamide] — 5.9-fold higher, 141 nM
- COc1cc(-c2cc(F)cc(C(F)(F)F)c2)ccc1-n1c(=O)ccc2cc(S(=O)(=O)Nc3cc(C)ncn3)ccc21 [Example 1101, 1-(3′-fluoro-3-methoxy-5′-(trifluoromethyl)-4-biphenylyl)-N-(6-methyl-4-pyrimidinyl)-2-oxo-1,2-dihydro-6-quinolinesulfonamide] — 1.7-fold higher, 41 nM

Same assay, conditions: in-vitro Nav 1.7 PX data (PatchXpress)

`COc1cc(C)ccc1-c1ccc(-n2c(=O)ccc3cc(S(=O)(=O)Nc4ccon4)ccc32)c(OC)c1` [Example 1063, 1-(2′,3-dimethoxy-4′-methyl-4-biphenylyl)-N-3-isoxazolyl-2-oxo-1,2-dihydro-6-quinolinesulfonamide] was tested, and the IC50 was 98 nM.
